Results reported in patent US8889731B2, “Compounds, compositions and methods for repelling blood-feeding arthropods and deterring their landing and feeding” (Contech Enterprises Inc., priority 2007, dated 2014).

Experiments:
Assay type in all cases: in vivo
Anopheles gambiae = test: Arm-in-cage repellent/deterrent bioassay on exposed human forearm (modified WHO protocol), Anopheles gambiae
Protocol: (§1) Candidate repellents and deterrents were bioassayed according to a modified protocol from the World Health Organization (1996). At least 1 hour prior to each bioassay, 75 host-seeking non blood-fed, nulliparous, 5- to 8-day-old female Aedes aegypti, Anopheles gambiae or Culex quinquefasciatus were placed into a wood-framed cage (26.5 cm on each side and 42.5 cm high) with a wooden floor, screened mesh sides and top, and a clear acrylic front fitted with a cotton stockinette sleeve (10 cm diameter). The test subject's arm was covered with an elbow-length polyethylene glove with an excised patch (16.6 cm long, 6 cm wide) to expose the ventral forearm of the test subject. Candidate deterrents were formulated in mineral (paraffin) oil and applied to the exposed forearm 5 min prior to inserting the arm into the cage. The inserted arm remained in the cage for 3 min every 30 min. Prior to each 3-min bioassay period, the hand of the untreated arm was inserted into the cage to ascertain that it received 10 bites within 30 sec as an indication of “biting pressure”.
(§2) The bioassay was terminated when the treated arm received ≧2 bites in one 3-min bioassay period or one bite in each of two consecutive bioassay periods. The time elapsed from experiment initiation to first bite was recorded as deterrent failure or complete protection time.
(§3) N,N-diethyl-m-toluamide formulated in ethanol at a corresponding dose served as a positive control, and mineral oil by itself served as a negative control. On each day, only one candidate compound was tested, ensuring that any residual material in the chamber had disappeared before the next bioassay.
(§4) To determine the repellence and deterrence of 8-allylsulfanyloctan-1-ol against Anopheles gambiae, a 2%, 5% or a 10% formulation of 8-allylsulfanyloctan-1-ol in mineral oil was applied in Experiments 5-7 at a dose of 1.5 mg per cm^2 to the skin of the test person, and was bioassayed according to the protocol described under EXAMPLE 2. In Experiment 8, mineral oil by itself served as a negative control and was tested at the same dose (1.5 mg per cm^2) as in Experiments 5-7. Each of Experiments 5-8 was replicated 4 times.
To be able to compare the repellence and deterrence caused N,N-diethyl-m-toluamide (DEET), and by 8-allylsulfanyloctan-1-ol, Experiment 13 tested a 2% formulation of N,N-diethyl-m-toluamide in ethanol (the best formulant for this compound) for protection from bites by Anopheles gambiae. A dose of 1.5 mg per cm^2 was applied to the skin of the test person and bioassayed according to the protocol described under EXAMPLE 2.
To compare the repellence and deterrence against Anopheles gambiae caused by 8-allyl-sulfanyloctan-1-ol as a single active ingredient and by 8-allylsulfanyloctan-1-ol in combination with vanillin as a second active ingredient, we tested a 6.7% emulsion of vanillin (Experiment 18), a 6.7-% emulsion of 8-allylsulfanyl-octan-1-ol (Experiment 19) and a 13.4% emulsion of 8-allylsulfanyloctan-1-ol plus vanillin (1:1 ratio) (Experiment 20). 8-Allylsulfanyloctan-1-ol and vanillin were formulated in Emulsion No. 1 (see EXAMPLE 9). In each of Experiments 18-20, test stimuli were applied at a dose of 1.5 mg per cm^2 to the skin of the test person, and were bioassayed according to the protocol described under EXAMPLE 2. In Experiment 21, Emulsion No. 1 served as a positive control and was tested at the same dose (1.5 mg per cm^2) as in experiments 18-20. Each of Experiments 18-21 was replicated three times.

mosquitoes = test: General bioassay procedure with garlic oil, its components and fractions (mosquito species not given)
Protocol: as §1, §2, §3
Garlic oil (Allium sativum—Mexico; Clearwater Soap Works, Box 1775 RR1, Clearwater, BC V0E 1N0, Canada) was formulated in mineral oil and tested using the general bioassay procedure described in EXAMPLE 2 at a dose of 0.1 mg per cm^2 of arm surface. It expressed repellence and deterrence for ˜30 min.
Some of the 10 components in FIG. 1 were bioassayed singly (see general bioassay procedure) and in various combinations, all of which were as deterrent to mosquitoes as garlic oil.
To determine the most deterrent component(s) in garlic oil, it was fractionated by HPLC into four fractions, each containing one or more of the EAD-active components (compounds 1-10 in FIG. 1 and 11-14 in TABLE 2). Each fraction was then bioassayed and shown to be similarly effective in repelling and deterring mosquitoes.
Components with high molecular weight (>250 daltons) are advantageous in that they: 1) dissipate slowly from treated surfaces; 2) provide long-lasting protection against mosquitoes and 3) convey little, if any, offensive smell. The relative abundance of such components was enhanced by treating garlic oil under vacuum, thus stripping away lower-boiling components. In GC-EAD analyses of the high-boiling residue, four components elicited responses from mosquito antennae.

Culex quinquefasciatus = test: Arm-in-cage repellent/deterrent bioassay on exposed human forearm (modified WHO protocol), Culex quinquefasciatus
Protocol: as §1, §2, §3
as §4, with “Culex quinquefasciatus,” for “Anopheles gambiae,”, “2% and” for “2%,”, “9-11” for “5-7”, “12,” for “8,”, “[…].” for “5-7.”, “9-11” for “5-8”
To compare the repellence and deterrence against Culex quinquefasciatus caused by 8-allylsulfanyloctan-1-ol as a single active ingredient and by 8-allylsulfanyloctan-1-ol in combination with vanillin as a second active ingredient, we tested a 6.7% emulsion of vanillin (Experiment 22), a 6.7% emulsion of 8-allylsulfanyloctan-1-ol (Experiment 23) and a 13.4% emulsion of 8-allylsulfanyloctan-1-ol plus vanillin (1:1 ratio) (Experiment 24). 8-Allylsulfanyloctan-1-ol and vanillin were formulated in Emulsion No. 1 (see EXAMPLE 9). In each of Experiments […], test stimuli were applied at a dose of 1.5 mg per cm^2 to the skin of the test person, and were bioassayed according to the protocol described under EXAMPLE 2. In Experiment 25, Emulsion No. 1 served as a positive control and was tested at the same dose (1.5 mg per cm^2) as in Experiments 22-24. Each of Experiments 22-25 was replicated three times.

In the case of `C=CCSCCCCCCCCO` [Compound 24, 8-allylsulfanyloctan-1-ol], the “protection from bites, average duration” value (Anopheles gambiae; 2% formulation in mineral oil, 1.5 mg per cm^2, Experiment 5) is reported as 297 min, the “protection from bites, average duration” value (Anopheles gambiae; 5% formulation in mineral oil, 1.5 mg per cm^2, Experiment 6) is reported as 314 min and the “protection from bites, average duration” value (Anopheles gambiae; 6.7% single active in Emulsion No. 1 (FIG. 8 legend: 2.0%), 1.5 mg per cm^2, Experiments 18, 19) is reported as 369 min. For the same compound, the “protection from bites, average duration” value (Anopheles gambiae; 10% formulation in mineral oil, 1.5 mg per cm^2, Experiment 7) was 487 min, the “repellent and deterrent effect in bioassays (in words)” value (mosquitoes) was “very potent, even at a low dose” and the “protection from bites, average duration” value (Culex quinquefasciatus; 2% formulation in mineral oil, 1.5 mg per cm^2, Experiment 9) was 198 min. For the same compound, the “protection from bites, average duration” value (Culex quinquefasciatus; 5% formulation in mineral oil, 1.5 mg per cm^2, Experiment 10) was 319 min, the “protection from bites, average duration” value (Culex quinquefasciatus; 6.7% single active in Emulsion No. 1 (FIG. 9 legend: 2.0%), 1.5 mg per cm^2, Experiments 22, 23) was 242 min and the “protection from bites, average duration” value (Culex quinquefasciatus; 10% formulation in mineral oil, 1.5 mg per cm^2, Experiment 11) was 495 min. For the same compound, the “protection status when experiment was terminated after eight hours” value (Culex quinquefasciatus; 10% formulation in mineral oil, Experiment 11, each of the three replicates) was “complete protection against bites”.
